Results: patent US20250197406A1, “INDAZOLES AS HEMATOPOIETIC PROGENITOR KINASE 1 (HPK1) INHIBITORS AND METHODS FOR USING SAME” (1ST Biotherapeutics, Inc., priority 2022, published 2025)
Counter-ions that a name gives are not always drawn.

Molecular target: recombinant human HPK1 (Homo sapiens (Human), UniProt Q92918)
Assay: HPK1 kinase assay (Promega ADP-Glo kinase assay)
Type: biochemical
Conditions: In vitro activity against HPK1, 5 ng HPK1, MBP substrate, ATP 25 μM, 30° C. 40 minutes
How it was run: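 IC50 was derived from percent inhibition across a range of compound concentrations. Recombinant human HPK1 (5 ng) phosphorylated MBP for 40 min at 30 °C in Tris buffer pH 7.5 with 20 mM MgCl2, with ATP added as a 25 µM solution and 0.5% DMSO. ADP formed was read by ADP-Glo luminescence.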

Sequence of recombinant human HPK1 (Q92918 whole entry): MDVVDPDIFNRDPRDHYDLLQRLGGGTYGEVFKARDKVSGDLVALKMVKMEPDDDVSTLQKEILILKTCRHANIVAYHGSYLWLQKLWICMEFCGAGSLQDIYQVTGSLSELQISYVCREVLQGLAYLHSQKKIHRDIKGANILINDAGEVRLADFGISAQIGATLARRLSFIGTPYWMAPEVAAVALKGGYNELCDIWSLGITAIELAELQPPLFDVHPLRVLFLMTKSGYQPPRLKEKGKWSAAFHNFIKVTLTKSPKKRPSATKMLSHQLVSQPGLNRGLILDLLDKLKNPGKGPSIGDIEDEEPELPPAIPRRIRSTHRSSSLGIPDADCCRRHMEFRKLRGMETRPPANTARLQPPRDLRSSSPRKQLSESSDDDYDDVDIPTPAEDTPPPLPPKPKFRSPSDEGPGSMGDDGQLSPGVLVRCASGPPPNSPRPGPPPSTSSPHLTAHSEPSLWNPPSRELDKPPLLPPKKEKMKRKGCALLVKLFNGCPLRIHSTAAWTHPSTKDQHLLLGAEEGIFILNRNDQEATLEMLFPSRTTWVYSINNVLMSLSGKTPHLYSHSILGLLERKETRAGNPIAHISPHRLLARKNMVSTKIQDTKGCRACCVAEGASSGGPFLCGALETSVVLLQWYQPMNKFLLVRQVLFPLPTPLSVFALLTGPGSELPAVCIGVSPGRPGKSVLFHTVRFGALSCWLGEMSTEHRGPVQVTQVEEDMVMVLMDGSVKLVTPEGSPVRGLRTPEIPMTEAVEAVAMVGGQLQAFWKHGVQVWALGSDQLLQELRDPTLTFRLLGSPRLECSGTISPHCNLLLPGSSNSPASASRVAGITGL

Row | SMILES | IC50 [µM]
1 | CN(C)c1c(F)c(C(F)(F)F)c(-c2cn3cc(NC(=O)[C@@H]4C[C@H]4F)nc3cn2)c2cn[nH]c12 [Example 30, (1S,2R)-N-(6-(7-(dimethylamino)-6-fluoro-5-(trifluoromethyl)-1H-indazol-4-yl)imidazo[1,2-a]pyrazin-2-yl)-2-fluorocyclopropane-1-carboxamide] | < 0.1
2 | CC(=O)Nc1cn2cc(-c3c(Cl)c(F)c(CN4CC(C)(O)C4)c4[nH]ncc34)ncc2n1 [Example 157, N-(6-(5-chloro-6-fluoro-7-((3-hydroxy-3-methylazetidin-1-yl)methyl)-1H-indazol-4-yl)imidazo[1,2-a]pyrazin-2-yl)acetamide] | 0.501 to 1
3 | CC(=O)Nc1cn2cc(-c3c(Cl)c(F)c(OC4CN(C(C)=O)C4)c4[nH]ncc34)ncc2n1 [Example 145, N-(6-(7-((1-acetylazetidin-3-yl)oxy)-5-chloro-6-fluoro-1H-indazol-4-yl)imidazo[1,2-a]pyrazin-2-yl)acetamide] | 0.501 to 1
4 | CC(C)Nc1c(F)c(Cl)c(-c2cn3cc(NC(=O)N4CCNCC4)nc3cn2)c2cn[nH]c12 [Example 120, N-(6-(5-chloro-6-fluoro-7-(isopropylamino)-1H-indazol-4-yl)imidazo[1,2-a]pyrazin-2-yl)piperazine-1-carboxamide] | < 0.1
5 | COc1c(F)c(N(C)C)c2[nH]ncc2c1-c1cn2cc(NC(=O)[C@@H]3C[C@@H]3F)nc2cn1 [Example 136, (1S,2S)-N-(6-(7-(dimethylamino)-6-fluoro-5-methoxy-1H-indazol-4-yl)imidazo[1,2-a]pyrazin-2-yl)-2-fluorocyclopropane-1-carboxamide] | < 0.1
6 | CC(=O)NC(c1c(F)c(C)c(-c2cn3cc(NC(=O)[C@@H]4C[C@@H]4F)nc3cn2)c2cn[nH]c12)C1CC1 (stereo partly drawn) [Example 42, (1S,2S)-N-(6-(7-(acetamido(cyclopropyl)methyl)-6-fluoro-5-methyl-1H-indazol-4-yl)imidazo[1,2-a]pyrazin-2-yl)-2-fluorocyclopropane-1-carboxamide] | < 0.1
7 | Cc1c(F)c(NC(C)C)c2[nH]ncc2c1-c1cn2cc(NC(=O)[C@H]3C[C@@H]3F)nc2cn1 [Example 35, (1R,2S)-2-fluoro-N-(6-(6-fluoro-7-(isopropylamino)-5-methyl-1H-indazol-4-yl)imidazo[1,2-a]pyrazin-2-yl)cyclopropane-1-carboxamide] | < 0.1
8 | CC(=O)Nc1cn2cc(-c3c(Cl)c(F)c(CN4CCC(C)(O)C4)c4[nH]ncc34)ncc2n1 (stereo not drawn) [Example 159, N-(6-(5-chloro-6-fluoro-7-((3-hydroxy-3-methylpyrrolidin-1-yl)methyl)-1H-indazol-4-yl)imidazo[1,2-a]pyrazin-2-yl)acetamide] | 0.501 to 1
9 | CC(=O)Nc1cn2cc(-c3c(Cl)c(F)c(C(C)N4CCC(O)C4)c4[nH]ncc34)ncc2n1 (stereo not drawn) [Example 163, N-(6-(5-chloro-6-fluoro-7-(1-(3-hydroxypyrrolidin-1-yl)ethyl)-1H-indazol-4-yl)imidazo[1,2-a]pyrazin-2-yl)acetamide] | 0.501 to 1
10 | Cc1c(F)c(C(C)NC(=O)C2CC2)c2[nH]ncc2c1-c1cn2cc(NC(=O)[C@@H]3C[C@@H]3F)nc2cn1 (stereo partly drawn) [Example 69, (1S,2S)-N-(6-(7-(1-(cyclopropanecarboxamido)ethyl)-6-fluoro-5-methyl-1H-indazol-4-yl)imidazo[1,2-a]pyrazin-2-yl)-2-fluorocyclopropane-1-carboxamide] | < 0.1
11 | CC(C)Nc1c(F)c(Cl)c(-c2cn3cc(NC(=O)CN(C)C)nc3cn2)c2cn[nH]c12 [Example 103, N-(6-(5-chloro-6-fluoro-7-(isopropylamino)-1H-indazol-4-yl)imidazo[1,2-a]pyrazin-2-yl)-2-(dimethylamino)acetamide] | < 0.1
12 | C[C@H](NC(=O)C(F)(F)F)c1c(F)c(Cl)c(-c2cn3cc(NC(=O)[C@@H]4C[C@@H]4F)nc3cn2)c2cn[nH]c12 [Example 146, (1S,2S)-N-(6-(5-chloro-6-fluoro-7-((S)-1-(2,2,2-trifluoroacetamido)ethyl)-1H-indazol-4-yl)imidazo[1,2-a]pyrazin-2-yl)-2-fluorocyclopropane-1-carboxamide] | < 0.1

Next, values leading:

Row | IC50 [µM] | SMILES
13 | 0.101 to 0.5 | Cc1c(F)c(C(C)N)c2[nH]ncc2c1-c1cn2cc(NC(=O)[C@@H]3C[C@@H]3F)nc2cn1 (stereo partly drawn) [Example 25, (1S,2S)-N-(6-(7-(1-aminoethyl)-6-fluoro-5-methyl-1H-indazol-4-yl)imidazo[1,2-a]pyrazin-2-yl)-2-fluorocyclopropane-1-carboxamide]
14 | < 0.1 | COC(c1c(F)c(C)c(-c2cn3cc(NC(=O)[C@@H]4C[C@@H]4F)nc3cn2)c2cn[nH]c12)C1CC1 (stereo partly drawn) [Example 2, (1S,2S)-N-(6-(7-(cyclopropyl(methoxy)methyl)-6-fluoro-5-methyl-1H-indazol-4-yl)imidazo[1,2-a]pyrazin-2-yl)-2-fluorocyclopropane-1-carboxamide]
15 | < 0.1 | Cc1c(F)c(C(C)C(F)F)c2[nH]ncc2c1-c1cn2cc(NC(=O)[C@@H]3C[C@@H]3F)nc2cn1 (stereo partly drawn) [Example 5, (1S,2S)-N-(6-(7-(1,1-difluoropropan-2-yl)-6-fluoro-5-methyl-1H-indazol-4-yl)imidazo[1,2-a]pyrazin-2-yl)-2-fluorocyclopropane-1-carboxamide]
16 | 0.101 to 0.5 | Cc1c(F)c(C(C)CN(C)C)c2[nH]ncc2c1-c1cn2cc(NC(=O)[C@@H]3C[C@@H]3F)nc2cn1 (stereo partly drawn) [Example 13, (1S,2S)-N-(6-(7-(1-(dimethylamino)propan-2-yl)-6-fluoro-5-methyl-1H-indazol-4-yl)imidazo[1,2-a]pyrazin-2-yl)-2-fluorocyclopropane-1-carboxamide]
17 | < 0.1 | CC(=O)NC(c1c(F)c(C(F)(F)F)c(-c2cn3cc(NC(=O)[C@@H]4C[C@@H]4F)nc3cn2)c2cn[nH]c12)C1CC1 (stereo partly drawn) [Example 56, (1S,2S)-N-(6-(7-(acetamido(cyclopropyl)methyl)-6-fluoro-5-(trifluoromethyl)-1H-indazol-4-yl)imidazo[1,2-a]pyrazin-2-yl)-2-fluorocyclopropane-1-carboxamide formate]
18 | < 0.1 | COCC(C)c1c(F)c(C)c(-c2cn3cc(NC(=O)[C@@H]4C[C@@H]4F)nc3cn2)c2cn[nH]c12 (stereo partly drawn) [Example 4, (1S,2S)-2-fluoro-N-(6-(6-fluoro-7-(1-methoxypropan-2-yl)-5-methyl-1H-indazol-4-yl)imidazo[1,2-a]pyrazin-2-yl)cyclopropane-1-carboxamide]
